According to patent publication US10449157B2, “Process for producing microcapsules comprising an active component encapsulated, protected and stabilised within a protein shell” (Anabio Technologies Limited, priority 2013, dated 2019):

Assays:
[1] = product literature; cited from earlier work
[2] = Stability trials of free and encapsulated Creatine in water (HPLC)
[3] = Electrophoretic mobility (zeta potential); type: physicochemical

Row | Compound | long term stability in water [1] | Creatine concentration reduced by ([2]; 15 min incubation in water at room temperature) | first-order degradation rate constant ([2]; in water at 25° C.) | zeta potential [3]
1 | CN(CC(=O)O)C(=N)N.O [CREAPURE, Creatine Monohydrate] | no long term stability | – | – | –
2 | CN(CC(=O)O)C(=N)N.O [commercial Creatine monohydrate, Creatine monohydrate] | – | 66% | 0.0263 per day | −2.4 mV
